Measurements published in patent US12037324B2, “Biarylmethyl heterocycles” (Université de Montréal, priority 2016, dated 2024).

How the values were obtained:
AGTR1 [1] = biological target: T1, AGTR1 (Homo sapiens, UniProt P30556); assay: DiscoveRx β-arrestin2 recruitment assay (enzyme complementation, Pathunter CHO-K1 AGTR1 β-arrestin cell line); type: cell-based; details: DiscoveRx β-arrestin2 recruitment; for DiscoveRx β-arrestin2 Ymax (%): maximal response
T1 construct: host or cells: Pathunter CHO-K1 AGTR1 β-arrestin cell line (CHO-K1)
T1 sequence (P30556 1-359): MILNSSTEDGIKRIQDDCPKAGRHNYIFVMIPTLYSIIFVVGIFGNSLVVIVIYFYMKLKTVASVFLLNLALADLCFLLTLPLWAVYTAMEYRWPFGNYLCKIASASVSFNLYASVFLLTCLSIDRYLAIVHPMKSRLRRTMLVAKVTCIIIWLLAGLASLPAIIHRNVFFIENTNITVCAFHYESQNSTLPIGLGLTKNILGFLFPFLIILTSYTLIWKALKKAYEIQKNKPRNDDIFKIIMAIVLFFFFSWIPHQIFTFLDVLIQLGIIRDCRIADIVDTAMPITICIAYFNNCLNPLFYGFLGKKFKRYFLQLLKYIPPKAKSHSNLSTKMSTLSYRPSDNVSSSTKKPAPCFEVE
Procedure, shortened: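 CHO-K1 cells expressing AGTR1 with β-arrestin2 enzyme-complementation reporter, plated 14-16 h ahead in 1% serum medium, then exposed to compounds for 90 min at 37° C. Chemiluminescence read after 1 h detection. EC50 (agonist) or IC50 (antagonist) from 4-parameter logistic fit; activity as percentage of All maximal effect.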

AGTR1 [2] = biological target: T1, AGTR1; assay: DiscoveRx IP1 accumulation assay (HTRF), agonist mode, Pathunter CHO-K1 AGTR1 β-arrestin cell line; type: cell-based; details: for EC50: read-out: IP-1 EC50
Procedure, shortened: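 Agonist mode in CHO-K1 AGTR1 β-arrestin cells plated 14-16 h before; compounds at varying concentrations for 90 min at 37° C, IP1 accumulation read by HTRF (D2-conjugate and anti-IP1 cryptate, 20 min room temperature). EC50 from 4-parameter logistic fit; activity given as percentage of maximal AII effect.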

hAT1R [3] = biological target: T2, hAT1R (Homo sapiens, UniProt P30556); assay: BRET β-arrestin2 biosensor assay, higher receptor expression (hAT1R 5 ng/well), HEK293 cells; type: cell-based; details: for EC50: High AT1R Expression
T2 sequence (P30556 1-359): T1 sequence (P30556 1-359)

hAT1R [4] = biological target: T2, hAT1R; assay: cell-based
hAT1R [5] = biological target: T2, hAT1R; assay: cell-based; details: agonist mode; for EC50: read-out: BRET P63 EC50
[6] = Low AT1R Expression, read-out: BRET β-Arrestin2 Low AT1R Expression EC50
[7] = section of the 42nd table ending at r951, example numbering restarts after the DiscoveRx section, read-out: β-arrestin2 EC50

CCCC1=NC2(CCCC2)C(=O)N1Cc1ccc(-c2cc(-c3ccccc3)ccc2-c2nn[nH]n2)cc1 [Example 114, 3-((6′-(2H-tetrazol-5-yl)-[1,1′:3′,1″-terphenyl]-4-yl)methyl)-2-propyl-1,3-diazaspiro[4.4]non-1-en-4-one]
EC50 (AGTR1 [1]): 0.0499 µM
DiscoveRx β-arrestin2 Ymax (%) (AGTR1 [1]): 46.5%
IP-1 Ymax (%) (AGTR1 [2]): 8.3%
EC50 (AGTR1 [2]): 0.122 µM
BRET β-Arrestin2 High AT1R Expression Ymax (%) (hAT1R [3]): 89.2%
EC50 (hAT1R [3]): 0.0119 µM
BRET β-Arrestin2 Low AT1R Expression Ymax (%) (hAT1R [4]; Low AT1R Expression): 57.2%
EC50 (hAT1R [4]; [6]): 0.0366 µM
BRET P63 Ymax (hAT1R [5]): 11.8%
EC50 (hAT1R [5]): 0.0665 µM

CCCC1=NC2(CCCC2)C(=O)N1Cc1ccc(-c2cc(N3CCC[C@@H](C)C3)ccc2-c2nn[nH]n2)cc1 [Example 117]
EC50 (AGTR1 [1]): 0.074 µM
DiscoveRx β-arrestin2 Ymax (%) (AGTR1 [1]): 30.6%
EC50 (AGTR1 [2]): > 100 µM
BRET β-Arrestin2 High AT1R Expression Ymax (%) (hAT1R [3]): 35.0%
EC50 (hAT1R [3]): 0.0942 µM
EC50 (hAT1R [4]; [6]): > 100 µM
EC50 (hAT1R [5]): > 100 µM

CCCCC1=NC2(CCCC2)C(=O)N1Cc1ccc(-c2cc(-c3ccc(C)cc3)ccc2-c2nn[nH]n2)cc1 [Example 122, 2-butyl-3-((4″-methyl-6′-(2H-tetrazol-5-yl)-[1,1′:3′,1″-terphenyl]-4-yl)methyl)-1,3-diazaspiro[4.4]non-1-en-4-one]
EC50 (AGTR1 [1]): 0.0161 µM
DiscoveRx β-arrestin2 Ymax (%) (AGTR1 [1]): 33.8%
IP-1 Ymax (%) (AGTR1 [2]): 5.5%
EC50 (AGTR1 [2]): 0.0354 µM
BRET β-Arrestin2 High AT1R Expression Ymax (%) (hAT1R [3]): 94.3%
EC50 (hAT1R [3]): 0.0175 µM
BRET β-Arrestin2 Low AT1R Expression Ymax (%) (hAT1R [4]; Low AT1R Expression): 31.6%
EC50 (hAT1R [4]; [6]): 0.0308 µM
EC50 (hAT1R [5]): > 10 µM

CCCCC1=NC2(CCCC2)C(=O)N1Cc1ccc(-c2cc(-c3ccc(C(=O)N(C)C)cc3)ccc2-c2nn[nH]n2)cc1 [Example 133]
EC50 (AGTR1 [1]): 0.0057 µM
DiscoveRx β-arrestin2 Ymax (%) (AGTR1 [1]): 18.0%
EC50 (AGTR1 [2]): > 100 µM
BRET β-Arrestin2 High AT1R Expression Ymax (%) (hAT1R [3]): 69.0%
EC50 (hAT1R [3]): 0.0384 µM
EC50 (hAT1R [4]; [6]): > 10 µM
EC50 (hAT1R [5]): > 10 µM

CCCCC1=NC2(CCCC2)C(=O)N1Cc1ccc(-c2cc(-c3cc(C)ccn3)ccc2-c2nn[nH]n2)cc1 [Example 139]
EC50 (AGTR1 [1]): 0.0105 µM
DiscoveRx β-arrestin2 Ymax (%) (AGTR1 [1]): 50.1%
IP-1 Ymax (%) (AGTR1 [2]): 16.8%
EC50 (AGTR1 [2]): 0.0192 µM
BRET β-Arrestin2 High AT1R Expression Ymax (%) (hAT1R [3]): 95.0%
EC50 (hAT1R [3]): 0.0112 µM
BRET β-Arrestin2 Low AT1R Expression Ymax (%) (hAT1R [4]; Low AT1R Expression): 83.5%
EC50 (hAT1R [4]; [6]): 0.0414 µM
BRET P63 Ymax (hAT1R [5]): 20.6%
EC50 (hAT1R [5]): 0.0344 µM

CCCCC1=NC2(CCCC2)C(=O)N1Cc1ccc(-c2cc(-c3cc(OC)ccn3)ccc2-c2nn[nH]n2)cc1 [Example 141]
EC50 (AGTR1 [1]): 0.0135 µM
DiscoveRx β-arrestin2 Ymax (%) (AGTR1 [1]): 31.5%
EC50 (AGTR1 [2]): > 100 µM
BRET β-Arrestin2 High AT1R Expression Ymax (%) (hAT1R [3]): 88.6%
EC50 (hAT1R [3]): 0.01 µM
BRET β-Arrestin2 Low AT1R Expression Ymax (%) (hAT1R [4]; Low AT1R Expression): 58.9%
EC50 (hAT1R [4]; [6]): 0.0404 µM
BRET P63 Ymax (hAT1R [5]): 14.9%
EC50 (hAT1R [5]): 0.0133 µM

CCc1nc2c(C)cc(C)nc2n1Cc1ccc(-c2cc(-c3cccc(C)c3)ccc2-c2nnn[nH]2)nc1 [Example 175, 2-ethyl-5,7-dimethyl-3-((6-(3′-methyl-4-(1H-tetrazol-5-yl)biphenyl-3-yl)pyridin-3-yl)methyl)-3H-imidazo[4,5-b]pyridine]
EC50 (AGTR1 [1]): 0.006 µM
DiscoveRx β-arrestin2 Ymax (%) (AGTR1 [1]): 37.0%
IP-1 Ymax (%) (AGTR1 [2]): 24.1%
EC50 (AGTR1 [2]): 0.0128 µM
BRET β-Arrestin2 High AT1R Expression Ymax (%) (hAT1R [3]): 93.0%
EC50 (hAT1R [3]): 0.0052 µM
EC50 (hAT1R [4]; [7]): 0.0107 µM
BRET P63 Ymax (hAT1R [5]): 12.4%
EC50 (hAT1R [5]): 0.0211 µM

CCc1nc2c(C)cc(C)nc2n1Cc1ccc(-c2cc(-c3ccccc3)ccc2-c2nnn[nH]2)nc1 [Example 176, 3-((6-(4-(1H-tetrazol-5-yl)-[1,1′-biphenyl]-3-yl)pyridin-3-yl)methyl)-2-ethyl-5,7-dimethyl-3H-imidazo[4,5-b]pyridine]
EC50 (AGTR1 [1]): 0.0318 µM
DiscoveRx β-arrestin2 Ymax (%) (AGTR1 [1]): 32.0%
IP-1 Ymax (%) (AGTR1 [2]): 9.8%
EC50 (AGTR1 [2]): 0.0489 µM
BRET β-Arrestin2 High AT1R Expression Ymax (%) (hAT1R [3]): 79.1%
EC50 (hAT1R [3]): 0.0255 µM
EC50 (hAT1R [4]; [7]): 0.0306 µM
EC50 (hAT1R [5]): > 100 µM

CCc1nc2c(C)cc(C)nc2n1Cc1ccc(-c2cc(-c3cccc(C)c3)ccc2-c2nnn[nH]2)cn1 [Example 177, 2-ethyl-5,7-dimethyl-3-((5-(3′-methyl-4-(1H-tetrazol-5-yl)biphenyl-3-yl)pyridin-2-yl)methyl)-3H-imidazo[4,5-b]pyridine]
EC50 (AGTR1 [1]): 0.0118 µM
DiscoveRx β-arrestin2 Ymax (%) (AGTR1 [1]): 52.2%
IP-1 Ymax (%) (AGTR1 [2]): 22.9%
EC50 (AGTR1 [2]): 0.113 µM
BRET β-Arrestin2 High AT1R Expression Ymax (%) (hAT1R [3]): 91.8%
EC50 (hAT1R [3]): 0.004 µM
EC50 (hAT1R [4]; [7]): 0.0115 µM
BRET P63 Ymax (hAT1R [5]): 23.8%
EC50 (hAT1R [5]): 0.0362 µM

CCc1nc2c(C)cc(C)nc2n1Cc1ccc(-c2cc(-c3ccccc3O)ccc2-c2nnn[nH]2)cn1 [Example 178]
EC50 (AGTR1 [1]): 0.0071 µM
DiscoveRx β-arrestin2 Ymax (%) (AGTR1 [1]): 75.6%
IP-1 Ymax (%) (AGTR1 [2]): 20.8%
EC50 (AGTR1 [2]): 0.0215 µM
BRET β-Arrestin2 High AT1R Expression Ymax (%) (hAT1R [3]): 89.3%
EC50 (hAT1R [3]): 0.0048 µM
EC50 (hAT1R [4]; [7]): 0.0194 µM
BRET P63 Ymax (hAT1R [5]): 19.6%
EC50 (hAT1R [5]): 0.0256 µM

CCc1nc2c(C)cc(C)nc2n1Cc1ccc(-c2cc(-c3ccccc3)ccc2-c2nnn[nH]2)cn1 [Example 179]
EC50 (AGTR1 [1]): 0.0407 µM
DiscoveRx β-arrestin2 Ymax (%) (AGTR1 [1]): 58.3%
IP-1 Ymax (%) (AGTR1 [2]): 12.2%
EC50 (AGTR1 [2]): 0.0817 µM
BRET β-Arrestin2 High AT1R Expression Ymax (%) (hAT1R [3]): 90.6%
EC50 (hAT1R [3]): 0.0207 µM
EC50 (hAT1R [4]; [7]): 0.0614 µM
BRET P63 Ymax (hAT1R [5]): 11.6%
EC50 (hAT1R [5]): 0.0523 µM

CCc1nc2c(C)cc(C)nc2n1Cc1ccc(-c2cc(-c3ccc(CO)cc3)ccc2-c2nnn[nH]2)cn1 [Example 180]
EC50 (AGTR1 [1]): 0.0519 µM
DiscoveRx β-arrestin2 Ymax (%) (AGTR1 [1]): 40.4%
IP-1 Ymax (%) (AGTR1 [2]): 27.5%
EC50 (AGTR1 [2]): 0.226 µM
BRET β-Arrestin2 High AT1R Expression Ymax (%) (hAT1R [3]): 85.3%
EC50 (hAT1R [3]): 0.0508 µM
EC50 (hAT1R [4]; [7]): 0.178 µM
BRET P63 Ymax (hAT1R [5]): 14.9%
EC50 (hAT1R [5]): 0.21 µM

CCc1nc2c(C)cc(C)nc2n1Cc1ccc(-c2cc(-c3cc(C)cc(C)c3)ccc2C(=O)O)cc1 [Example 181, 4″-((2-ethyl-5,7-dimethyl-3H-imidazo[4,5-b]pyridin-3-yl)methyl)-3,5-dimethyl-[1,1′:3′,1″-terphenyl]-4′-carboxylic acid]
EC50 (AGTR1 [1]): 0.048 µM
DiscoveRx β-arrestin2 Ymax (%) (AGTR1 [1]): 88.8%
IP-1 Ymax (%) (AGTR1 [2]): 6.1%
EC50 (AGTR1 [2]): 0.0784 µM
BRET β-Arrestin2 High AT1R Expression Ymax (%) (hAT1R [3]): 94.1%
EC50 (hAT1R [3]): 0.0048 µM
EC50 (hAT1R [4]; [7]): 0.0157 µM
BRET P63 Ymax (hAT1R [5]): 16.1%
EC50 (hAT1R [5]): 0.0475 µM

CCc1nc2c(C)cc(C)nc2n1Cc1ccc(-c2cc(-c3ccc(CO)cc3)ccc2C(=O)O)cc1 [Example 183]
EC50 (AGTR1 [1]): 0.0662 µM
DiscoveRx β-arrestin2 Ymax (%) (AGTR1 [1]): 36.2%
IP-1 Ymax (%) (AGTR1 [2]): 14.1%
EC50 (AGTR1 [2]): 0.2 µM
BRET β-Arrestin2 High AT1R Expression Ymax (%) (hAT1R [3]): 90.0%
EC50 (hAT1R [3]): 0.0629 µM
EC50 (hAT1R [4]; [7]): 0.138 µM
BRET P63 Ymax (hAT1R [5]): 13.2%
EC50 (hAT1R [5]): 0.179 µM

CCc1nc2c(C)cc(C)nc2n1Cc1ncc(-c2cc(-c3ccccc3)ccc2-c2nnn[nH]2)cn1 [Example 190]
EC50 (AGTR1 [1]): 0.138 µM
DiscoveRx β-arrestin2 Ymax (%) (AGTR1 [1]): 57.0%
IP-1 Ymax (%) (AGTR1 [2]): 17.5%
EC50 (AGTR1 [2]): 0.485 µM
BRET β-Arrestin2 High AT1R Expression Ymax (%) (hAT1R [3]): 88.8%
EC50 (hAT1R [3]): 0.0836 µM
EC50 (hAT1R [4]; [7]): 0.154 µM
BRET P63 Ymax (hAT1R [5]): 16.4%
EC50 (hAT1R [5]): 0.432 µM
